For 18 molecules, TGI results are on record in PubChem BioAssay (NCI).

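96-well plates; 48 h exposure; 5 concentrations. Endpoints by linear interpolation between flanking doses. Not reached: highest tested concentration assigned. Definition used: TGI = concentration required for complete inhibition of growth.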

Assay in all cases: NCI anticancer screen, dose series, 48 h
Test [1] relates to COLO 205 colon.
Test [2] concerns IGROV1 ovarian.
In test [3] the test system is LOX IMVI melanoma.
Test [4] deals with M14 melanoma.
Test [5] has as its system MALME-3M melanoma.
The test system of test [6] is NCI-H522 lung.
The subject of test [7] is OVCAR-3 ovarian.
Test [8] has as its system RXF 393 renal.
Test [9] relates to SF-268 CNS.
Test [10] has as its system SN12C renal.
Test [11] relates to SR leukemia.
The subject of test [12] is UACC-257 melanoma.

As for `O=c1cc(-c2ccccc2)oc2cc(OCCSCCCCCCCCCCSCCOc3ccc4c(=O)cc(-c5ccccc5)oc4c3)ccc12`, the TGI in [1], in test [2], in test [3], in test [4], in [5] and in test [6] was more than 100 µM in each case. Besides, the TGI in [7], in test [8], in test [9], in [10], in test [11] and in test [12] was more than 100 µM in each case.

Turning to `[N-]=[N+]=NC(CBr)c1cn([C@H]2C[C@H](O)[C@@H](CO)O2)c(=O)[nH]c1=O` (stereo not given in full), the TGI in test [1], in test [2], in test [3], in [4], in [5] and in test [6] was more than 100 µM throughout. The TGI in [7], in test [8], in [10] and in test [11] was more than 100 µM in each case.

Consider `O=C(O)Cn1c(=O)[nH]c(=O)c2c1ncn2Cc1ccccc1`, for which the TGI in test [1], in test [4], in [5], in [6], in test [7] and in test [9] was more than 100 µM each time. Besides, the TGI in test [10] and in [11] was more than 100 µM each time.

Consider `CSc1nc2[nH]c(=O)c(C)nc2c(=O)[nH]1`, for which the TGI in test [1], in test [2], in [3], in test [4], in test [5] and in test [6] was more than 100 µM throughout. In addition, the TGI in test [7], in [8], in test [9], in test [10], in test [11] and in test [12] was more than 100 µM throughout.

Turning to `COc1ccc(/C(=N/NC(N)=O)C(c2ccc(OC)cc2)C2C(=O)Oc3ccccc32)cc1` (stereo not given), the TGI in [1], in [2], in [3], in test [4], in test [5] and in [6] was more than 100 µM each time. Moreover, the TGI in [7], in test [8], in test [9], in test [10], in test [11] and in test [12] was more than 100 µM in each case.

Take `CC(=O)NNc1nc(C)c(C(/C=C/c2ccc(Cl)cc2)=N/NC(=O)C[N+](C)(C)C)s1`: the TGI in test [1], in test [2], in [3], in test [4], in test [5] and in test [6] was more than 100 µM throughout. Besides, the TGI in test [7], in test [8], in test [9] and in [12] was more than 100 µM throughout.

On to `O=C1CC(=O)N(CCc2ccccc2)S(=O)(=O)N1CCc1ccccc1`, for which the TGI was 44.2 µM in test [1]; 42 µM in test [2]; 3.72 µM in [3]; more than 100 µM in test [4]; 79.5 µM in test [5]; 37.5 µM in test [6]. Besides, the TGI is 36.8 µM in [7]; 83.4 µM in test [8]; 80.8 µM in [9]; more than 100 µM in test [10]; 48.2 µM in test [11].

Regarding `CN(C)c1ccc(/C=N\N2C(=O)c3ccccc3C2=O)cc1`, the TGI in test [2], in test [3], in [4], in test [5], in test [7] and in test [8] was more than 100 µM in each case. The TGI in [9], in test [10], in test [11] and in test [12] was more than 100 µM throughout.

With `Cc1ccc(O)c(C(=O)CCCC(=O)c2cc(C)ccc2O)c1`, the TGI in test [1], in [2], in [3], in [4], in [5] and in test [6] was more than 100 µM throughout. Moreover, the TGI in [9], in test [10] and in test [12] was more than 100 µM throughout.

For the molecule `N#CC1(C=O)c2ccccc2C=CN1C(=O)c1ccccc1` (stereo not given), the TGI in test [1] is more than 100 µM; in test [2] it was more than 100 µM; in test [4] it was 92.4 µM; in test [5], more than 100 µM; in [6], more than 100 µM; in test [7] it was 52.8 µM. For the same molecule, the TGI in [8] was 53.8 µM; in [9], more than 100 µM; in test [10], more than 100 µM; in test [11], 66.5 µM; in test [12], more than 100 µM.

For the molecule `COC(=O)[C@@]12OC[C@]34C([C@@H](O)C1O)[C@@]1(C)CC(=O)C(OC(=O)/C=C(/c5ccccc5)C(F)(F)F)=C(C)C1C[C@H]3OC(=O)[C@H](O)[C@H]42` (stereo not given in full), the TGI in test [1] amounted to 30.2 µM; in test [2], 21.2 µM; in [4], 36.9 µM; in test [5], 28.9 µM; in [6], 24.5 µM; in [8], 45.6 µM. For the same molecule, the TGI in test [9] is more than 50 µM; in test [10], more than 50 µM; in test [11], 19.4 µM; in test [12], more than 50 µM.

Regarding `COC(=O)c1ccc(Cc2ccc(C(=O)OC)o2)o1`, the TGI in [1], in test [2], in test [3], in test [5], in test [6] and in test [7] was more than 378 µM throughout. Moreover, the TGI in test [8], in [9], in test [10], in test [11] and in test [12] was more than 378 µM in each case.

In the case of `COc1cc([C@@H]2c3cc4c(cc3[C@@H](NC(=O)c3cccc(F)c3)C3COC(=O)[C@@H]32)OCO4)cc(OC)c1O` (stereo not given in full), the TGI in test [1] came to 22.1 µM; in test [2], 10.6 µM; in test [3], 15.1 µM; in test [4], 6.72 µM; in test [5], 7.83 µM; in [6] it was 3.97 µM. In addition, the TGI is 17.4 µM in test [7]; 37.5 µM in [8]; more than 100 µM in test [9]; 2.73 µM in test [10]; 58.1 µM in [12].

On to `COc1ccc(CNc2nc3c(NC(C)=O)cc(C(F)(F)F)cc3nc2-c2ccccc2)cc1OC`, for which the TGI was more than 100 µM in test [1]; more than 100 µM in [2]; more than 100 µM in [3]; more than 100 µM in test [4]; more than 100 µM in test [5]; 23.5 µM in [6]. The TGI in test [7], in test [9], in test [10] and in test [12] was more than 100 µM in each case.

Consider `COc1cc2c(cc1OC)C(=O)C(C1=C(SC(=N)N)C(=O)c3cc(OC)c(OC)cc31)C2` (stereo not given), for which the TGI in test [1], in test [2], in [3], in [4], in [5] and in [6] was more than 100 µM in each case. The TGI in test [7], in [9], in test [10], in test [11] and in test [12] was more than 100 µM throughout.

Take `COc1cc(/C=C2/C(=O)N(C(=O)c3ccc(Cl)cc3)N=C2C)cc(OC)c1OC`: the TGI in [1], in test [2], in test [3], in test [4], in test [5] and in test [6] was more than 100 µM in each case. The TGI in test [7], in [8], in test [9], in [10] and in test [12] was more than 100 µM each time.

Take `CC(C)C(/C=C/c1ccc(Br)cc1)=N\NC(N)=O`: the TGI in [1], in test [2], in test [3], in test [4], in test [6] and in test [8] was more than 100 µM throughout. Further, the TGI in [9], in test [10], in test [11] and in test [12] was more than 100 µM each time.

For the molecule `COCCOCC(=O)N(CCn1ccc(NC(c2ccccc2)(c2ccccc2)c2ccccc2)nc1=O)CCn1cnc2nc(N)[nH]c(=O)c21`, the TGI in [1], in test [2], in test [3], in [4], in [5] and in test [7] was more than 100 µM in each case. The TGI in test [8], in test [9], in test [10], in [11] and in test [12] was more than 100 µM throughout.
